# Measured values from PMC12040169 (PLOS Biology, 2025).
# Experiment: in vitro
# Conditions: human, hela cells, % viability
row,SMILES,"viability at 28.5 h, 10 µM"
1,CC(Nc1nc(N2CCNCC2)nc2ccccc12)c1ccccc1 (centres unmarked) [CBK266475],102%
2,Cc1nc(-c2ccccc2)sc1C(=O)C1=C(O)C(=O)N(CCCN2CCOCC2)C1c1ccco1 (centres unmarked) [CBK266476],111%
3,COc1ccc(OC)c(NC(=O)CC2NCCNC2=O)c1 (centres unmarked) [CBK266477],95.9%
4,COc1ccc(N2C(=O)CC(Nc3ccc(Cc4nc5ccccc5[nH]4)cc3)C2=O)cc1 (centres unmarked) [CBK266480],96.9%
5,Cc1cc(Cl)ccc1OC(C)C(=O)Nc1cc(C(=O)O)cc(C(=O)O)c1 (centres unmarked) [CBK266483],103%
6,CCCc1cc(=O)[nH]c(N/C(=N/C(=O)c2ccccc2)Nc2ccc3c(c2)OCCO3)n1 [CBK266485],99.5%
7,O=C(CSc1nc2[nH]ncc2c(=O)n1-c1ccccc1)Nc1nsc(-c2ccccc2)n1 [CBK266486],101%
8,COc1cc(S(=O)(=O)N2CCCN(S(=O)(=O)c3cc(OC)c(Cl)cc3OC)CC2)c(OC)cc1Cl [CBK266489],99.4%
9,Cc1cc(C)n(C(=O)c2ccc([N+](=O)[O-])cc2N)n1 [CBK266491],102%
10,Cc1sc2nc(SCc3nc(-c4ccccc4)no3)n(-c3ccccc3)c(=O)c2c1C [CBK266492],110%
11,Cc1c(C(=O)C2=C(O)C(=O)N(CCN3CCOCC3)C2c2ccccn2)cnn1-c1ccccc1 (centres unmarked) [CBK266493],112%
12,Cc1[nH]c2ccccc2c1C(=O)CSc1nc2ccccc2[nH]1 [CBK266494],63.6%
13,Cc1cc(Cl)c(S(=O)(=O)NCc2cccs2)cc1OCC(N)=O [CBK266496],101%
14,COc1ccc(CCNC(=O)Nc2ccccc2[N+](=O)[O-])cc1 [CBK266497],96.8%
15,O=C(CSC1c2ccccc2Oc2ccccc21)Nc1ccccc1C(=O)O [CBK266499],98.4%
16,O=C(CSc1ccccc1)Nc1cccc(Oc2ccc3c(c2)C(=O)NC3=O)c1 [CBK266500],113%
17,Cc1ccc(CNS(=O)(=O)c2ccc3ccccc3c2)cc1 [CBK266501],102%
18,CC(Sc1nc2ccccc2[nH]1)c1nc2ccccc2[nH]1 (centres unmarked) [CBK266502],89.7%
19,CCN1CCN(c2ccc(NC(=O)c3ccc([N+](=O)[O-])c(C)c3)cc2)CC1 [CBK266503],115%
20,N=C(Nc1nc(=O)cc(CSc2ccc(Cl)cc2)[nH]1)Nc1cccc2ccccc12 [CBK266504],98.9%
21,O=C(C1=C(O)C(=O)N(CCN2CCOCC2)C1c1ccccn1)c1cccs1 (centres unmarked) [CBK266508],99.3%

row,SMILES,"viability at 28.5 h, 10 µM"
1,Cc1cc(C)nc(N(C#N)CC(=O)N2c3ccccc3CCc3ccccc32)n1 [CBK266509],112%
2,Cc1nc(-c2ccccc2)sc1C(=O)C1=C(O)C(=O)N(CCN2CCOCC2)C1c1ccccc1F (centres unmarked) [CBK266511],103%
3,O=C(c1ccccc1)c1ccc(OCC(O)CN2CCN(c3ccccn3)CC2)cc1 (centres unmarked) [CBK266513],98.3%
4,COc1ccc(N2C(=O)C(CC(=O)Nc3ccc(F)cc3)N(Cc3ccc4c(c3)OCO4)C2=O)cc1 (centres unmarked) [CBK266515],97%
5,Cc1nc(-c2ccccc2)sc1C(=O)C1=C(O)C(=O)N(CCN2CCOCC2)C1c1cccs1 (centres unmarked) [CBK266520],102%
6,CCC(C)NS(=O)(=O)c1ccc(OCC(=O)O)cc1 (centres unmarked) [CBK266521],120%
7,Cn1nnc2cc(C(=O)N(CCO)c3ccccc3)ccc21 [CBK266522],95.5%
8,Cc1cc(Cl)c(S(=O)(=O)Nc2cccnc2)cc1OCC(N)=O [CBK266523],104%
9,CC(Oc1ccccc1)C(=O)Nc1c[nH]c(=O)[nH]c1=O (centres unmarked) [CBK266524],72.3%
10,O=C(CSc1nnc2sc3ccccc3n12)N1N=CCC1c1ccccc1 (centres unmarked) [CBK266527],87.1%
11,Cc1cccc(Oc2nc3c(C)cccn3c(=O)c2/C=C(\C#N)c2nc3ccccc3[nH]2)c1 [CBK266528],104%
12,COc1ccc(C(=O)C2=C(O)C(=O)N(CCCN(C)C)C2c2ccncc2)cc1Cl (centres unmarked) [CBK266529],109%
13,COCc1c(Br)c(C)nc(OCC(=O)O)c1C#N [CBK266532],96.9%
14,Cc1cccc(NC(=O)COc2ccccc2CNc2ccc(Br)cc2)c1 [CBK266534],101%
15,Cc1cc(Cl)c(S(=O)(=O)Nc2cccc(Br)c2)cc1OCC(N)=O [CBK266535],100%
16,Cc1ccc(C(=O)C2=C(O)C(=O)N(CCN(C)C)C2c2ccccn2)o1 (centres unmarked) [CBK266536],119%
17,COc1ccc(C(C)C)cc1S(=O)(=O)NCCN1CCOCC1 [CBK266538],112%
18,Cc1c(C(=O)C2=C(O)C(=O)N(Cc3cccnc3)C2c2ccc(F)cc2)cnn1-c1ccccc1 (centres unmarked) [CBK266541],105%
19,Cc1ccc(S(=O)(=O)NC(C)C(=O)Nc2cc(C(F)(F)F)ccc2Cl)cc1 (centres unmarked) [CBK266546],109%
20,Cc1nnc(SCc2cc(=O)nc(Nc3nc(C)c4ccccc4n3)[nH]2)s1 [CBK266549],103%
21,O=C(Nc1ccc(S(=O)(=O)N2CCOCC2)cc1)c1ccc(CN2CCc3ccccc3C2)cc1 [CBK266550],96.2%

row,SMILES,"viability at 28.5 h, 10 µM"
1,COc1cccc(CNC(C)(C)CO)c1OCc1ccc(Cl)cc1 [CBK266552C],102%
2,Cc1cc(Cl)c(S(=O)(=O)N2CCN(c3ccccn3)CC2)cc1OCC(N)=O [CBK266553],117%
3,Nc1nc(SCC(=O)c2ccc3c(c2)OCCO3)n[nH]1 [CBK266554],107%
4,COc1ccc(F)cc1S(=O)(=O)N1CCCN(S(=O)(=O)c2cc(F)ccc2OC)CC1 [CBK266555],93.5%
5,CC(C)(C)c1cc(CN2CCCCC2)c(C(=O)O)o1 [CBK266556C],97.8%
6,O=C(NCC1(c2ccccc2)CCCC1)c1ccc(NC(=O)C2COc3ccccc3O2)cc1 (centres unmarked) [CBK266558],97.9%
7,COc1cc(S(=O)(=O)NC2CC(C)(C)NC(C)(C)C2)ccc1F [CBK266561],92%
8,Cc1ccc(S(=O)(=O)N2CCN(CC(O)COc3ccc4ccccc4c3Cl)CC2)c(C)c1 (centres unmarked) [CBK266563],83%
9,COc1ccc(N2CCN(/C(=N\S(=O)(=O)c3ccc(C)cc3)Nc3nc(C)cc(C)n3)CC2)cc1 [CBK266564],99.9%
10,O=[N+]([O-])c1cc(C(F)(F)F)ccc1NCCCNc1nc(N2CCOCC2)nc2ccccc12 [CBK266567],112%
11,O=C(CCSc1ccccc1)Nc1ccc(S(=O)(=O)N2CCOCC2)cc1 [CBK266568],114%
12,Clc1cccc(Cl)c1CN(Cc1ccccc1)c1ncnc2[nH]cnc12 [CBK266571],95.2%
13,Nc1nc(SCC(=O)NCc2ccco2)n[nH]1 [CBK266572],94%
14,COc1ccc(N(CC(=O)NC2CC3CCC2C3)S(=O)(=O)c2ccc(C)cc2)cc1 (centres unmarked) [CBK266574],108%
15,COc1cc(CNn2c(C)nnc2S)cc(Br)c1OCC(=O)NC(C)(C)C [CBK266575],112%
16,O=C(CSc1nnc2scc(-c3ccccc3)n12)Nc1nsc(-c2ccc(Cl)cc2)n1 [CBK266576],95.4%
17,CC12CCC(C(=O)O)(c3nc4cc([N+](=O)[O-])ccc4nc31)C2(C)C (centres unmarked) [CBK266577K],95.6%
18,NS(=O)(=O)c1ccc(CCNC2CC(=O)N(Cc3cccs3)C2=O)cc1 (centres unmarked) [CBK266579],91.1%
19,Nc1nc(SCC(=O)NCc2ccc3c(c2)OCO3)n[nH]1 [CBK266580],101%
20,COc1ccc2[nH]c(C(=O)O)c(CCC(=O)O)c2c1 [CBK266582],98.1%
21,CCN(CC)CCN1C(=O)C(O)=C(C(=O)c2ccc(C)o2)C1c1ccccn1 (centres unmarked) [CBK266584],109%

row,SMILES,"viability at 28.5 h, 10 µM"
1,Cc1cc(Cl)c(S(=O)(=O)NCc2ccccc2)cc1OCC(N)=O [CBK266588],104%
2,Cc1cc(Cl)c(S(=O)(=O)Nc2ccon2)cc1OCC(N)=O [CBK266589],99.6%
3,CCNc1nc(NCc2ccccc2)nc(Oc2ccc(=O)[nH]n2)n1 [CBK266591],104%
4,COc1ccccc1C1C(C(=O)c2sc(C)nc2C)=C(O)C(=O)N1CCCN1CCOCC1 (centres unmarked) [CBK266592],113%
5,Cc1nc(-c2ccccc2)sc1C(=O)C1=C(O)C(=O)N(CCN(C)C)C1c1ccc(Cl)cc1 (centres unmarked) [CBK266595],110%
6,COc1cc(NC(=O)CC2NC3CCCCC3NC2=O)cc(OC)c1 (centres unmarked) [CBK266597],99.1%
7,Cc1nc(-c2ccccc2)sc1C(=O)C1=C(O)C(=O)N(CCCN2CCOCC2)C1c1cccs1 (centres unmarked) [CBK266601],91.4%
8,COc1ccc(-c2nnc3c4ccccc4c(C)nn23)cc1S(=O)(=O)NC(C)c1ccccc1 (centres unmarked) [CBK266605],104%
9,Cc1cc(C)cc(NC(=O)c2ccc(CSc3nnc(N)s3)cc2)c1 [CBK266609],85.5%
10,CCn1c(COc2ccc(Cl)c3cccnc23)nnc1SC [CBK266611],85.9%
11,CCN1CCN(C(=O)CN(Cc2ccc(F)cc2)S(=O)(=O)c2ccccc2)CC1 [CBK266612],96.8%
12,Cc1ccc(S(=O)(=O)NCC(C)O)cc1-c1nnc2c3ccccc3c(C)nn12 (centres unmarked) [CBK266614],106%
13,NS(=O)(=O)c1ccc(NC2=NC(=O)C(CC(=O)Nc3ccc(Br)cc3)S2)cc1 (centres unmarked) [CBK266616],117%
14,Nn1c(=O)c2ccccc2n2c(SCC(=O)N(c3ccccc3)c3ccccc3)nnc12 [CBK266621],99.3%
15,Cn1c(SCC(=O)NC(c2ccccc2)c2ccccc2)nnc1-c1ccncc1 [CBK266622],97.8%
16,N#CC1=C(N)Oc2[nH]nc(-c3ccc4ccccc4c3)c2C1c1cn(CC(N)=O)nc1-c1ccccc1 (centres unmarked) [CBK266624],107%
17,N#C/C(=C/c1ccc(OCc2cccc(C(=O)O)c2)cc1)c1ccc([N+](=O)[O-])cc1 [CBK266626],89.6%
18,CCN1CCN(Cc2c(O)ccc3c(=O)c(Oc4ccccc4Cl)c(C(F)(F)F)oc23)CC1 [CBK266627],107%
19,CCN1CCN(c2ccc(NC(=O)c3cccnc3)cc2Cl)CC1 [CBK266629C],97.9%
20,O=c1n(-c2ccccc2)c(=O)n(Cc2ccccn2)n1Cc1ccccn1 [CBK266630],98.7%
